Results: ChEMBL document CHEMBL1133464, “Ligands for glutamate receptors: design and therapeutic prospects” (J Med Chem, 2000)

Assays:
[1] = target: Metabotropic glutamate receptor 4 (Homo sapiens, UniProt Q14833); experiment: Agonist potency against cloned human Metabotropic glutamate receptor 4 (mGluR-4); assay type: functional
[2] = target: Metabotropic glutamate receptor 5 (Homo sapiens, UniProt P41594); experiment: Agonist potency against cloned metabotropic glutamate receptor 5; assay type: functional
[3] = target: Metabotropic glutamate receptor 1 (Homo sapiens, UniProt Q13255); experiment: Agonist potency against cloned human metabotropic glutamate receptor 1; assay type: functional
[4] = target: Metabotropic glutamate receptor 2 (Homo sapiens, UniProt Q14416); experiment: Partial agonist potency against cloned Metabotropic glutamate receptor 2; assay type: functional
[5] = (§1) Effective concentration against NR1/NR2A receptor
[6] = as §1; remark: listed apart in the source
[7] = as §1; remark: listed apart in the source
[8] = as §1; remark: listed apart in the source

Chain of Metabotropic glutamate receptor 4 (Q14833 whole entry): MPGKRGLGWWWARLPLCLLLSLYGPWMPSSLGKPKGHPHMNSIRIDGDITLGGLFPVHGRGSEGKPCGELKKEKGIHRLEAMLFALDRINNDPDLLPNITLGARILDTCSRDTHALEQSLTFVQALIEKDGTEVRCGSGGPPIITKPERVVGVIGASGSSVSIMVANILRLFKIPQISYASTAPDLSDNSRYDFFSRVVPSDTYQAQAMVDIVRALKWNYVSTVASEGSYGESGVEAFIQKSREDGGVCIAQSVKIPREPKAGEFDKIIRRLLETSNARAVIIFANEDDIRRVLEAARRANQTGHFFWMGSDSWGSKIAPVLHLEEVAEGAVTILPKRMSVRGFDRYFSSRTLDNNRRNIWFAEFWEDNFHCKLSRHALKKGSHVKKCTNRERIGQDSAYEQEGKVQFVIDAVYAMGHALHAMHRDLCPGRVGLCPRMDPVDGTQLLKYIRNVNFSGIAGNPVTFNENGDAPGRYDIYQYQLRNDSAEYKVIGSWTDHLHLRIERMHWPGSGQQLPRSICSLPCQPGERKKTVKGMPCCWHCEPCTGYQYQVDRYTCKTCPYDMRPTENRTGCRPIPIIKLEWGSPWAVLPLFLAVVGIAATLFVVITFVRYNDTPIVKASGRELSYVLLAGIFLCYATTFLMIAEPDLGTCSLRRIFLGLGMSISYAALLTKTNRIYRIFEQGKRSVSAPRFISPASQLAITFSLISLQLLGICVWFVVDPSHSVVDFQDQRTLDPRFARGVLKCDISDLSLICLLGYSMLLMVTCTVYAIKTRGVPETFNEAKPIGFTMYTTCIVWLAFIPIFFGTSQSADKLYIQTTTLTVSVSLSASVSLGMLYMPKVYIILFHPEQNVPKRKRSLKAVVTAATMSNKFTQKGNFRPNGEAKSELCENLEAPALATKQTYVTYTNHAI
Chain of Metabotropic glutamate receptor 1 (Q13255 whole entry): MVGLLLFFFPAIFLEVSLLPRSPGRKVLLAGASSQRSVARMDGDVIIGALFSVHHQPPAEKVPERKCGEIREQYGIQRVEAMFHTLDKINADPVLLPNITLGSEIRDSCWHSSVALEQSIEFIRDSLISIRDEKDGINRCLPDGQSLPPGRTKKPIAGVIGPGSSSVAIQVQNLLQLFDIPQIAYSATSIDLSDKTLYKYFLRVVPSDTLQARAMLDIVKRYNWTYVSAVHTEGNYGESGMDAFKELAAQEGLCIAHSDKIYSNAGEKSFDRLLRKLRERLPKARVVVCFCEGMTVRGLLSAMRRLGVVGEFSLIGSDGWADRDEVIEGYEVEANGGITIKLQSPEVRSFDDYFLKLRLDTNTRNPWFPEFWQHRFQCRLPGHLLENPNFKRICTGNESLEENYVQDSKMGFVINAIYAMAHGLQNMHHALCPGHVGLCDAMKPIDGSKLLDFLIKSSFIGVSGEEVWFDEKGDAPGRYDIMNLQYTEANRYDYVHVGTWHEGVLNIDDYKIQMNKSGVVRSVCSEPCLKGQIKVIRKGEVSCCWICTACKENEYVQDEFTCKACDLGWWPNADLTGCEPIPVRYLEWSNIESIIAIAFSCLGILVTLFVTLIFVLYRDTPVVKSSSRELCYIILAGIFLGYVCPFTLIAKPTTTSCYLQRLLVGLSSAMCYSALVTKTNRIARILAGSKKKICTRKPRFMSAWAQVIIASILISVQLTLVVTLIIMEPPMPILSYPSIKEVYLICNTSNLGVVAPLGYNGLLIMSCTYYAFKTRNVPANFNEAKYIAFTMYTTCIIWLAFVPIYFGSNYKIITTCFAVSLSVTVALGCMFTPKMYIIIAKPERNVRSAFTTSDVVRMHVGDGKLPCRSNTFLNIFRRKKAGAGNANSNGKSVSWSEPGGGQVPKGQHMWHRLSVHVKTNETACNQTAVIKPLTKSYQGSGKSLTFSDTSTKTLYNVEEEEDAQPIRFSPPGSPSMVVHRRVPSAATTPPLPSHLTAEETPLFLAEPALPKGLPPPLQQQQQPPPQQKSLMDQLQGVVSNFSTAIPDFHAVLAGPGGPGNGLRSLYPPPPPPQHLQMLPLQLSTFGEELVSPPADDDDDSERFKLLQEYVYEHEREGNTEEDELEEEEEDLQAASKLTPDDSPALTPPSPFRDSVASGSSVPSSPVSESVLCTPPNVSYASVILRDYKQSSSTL
Chain of Metabotropic glutamate receptor 5 (P41594 whole entry): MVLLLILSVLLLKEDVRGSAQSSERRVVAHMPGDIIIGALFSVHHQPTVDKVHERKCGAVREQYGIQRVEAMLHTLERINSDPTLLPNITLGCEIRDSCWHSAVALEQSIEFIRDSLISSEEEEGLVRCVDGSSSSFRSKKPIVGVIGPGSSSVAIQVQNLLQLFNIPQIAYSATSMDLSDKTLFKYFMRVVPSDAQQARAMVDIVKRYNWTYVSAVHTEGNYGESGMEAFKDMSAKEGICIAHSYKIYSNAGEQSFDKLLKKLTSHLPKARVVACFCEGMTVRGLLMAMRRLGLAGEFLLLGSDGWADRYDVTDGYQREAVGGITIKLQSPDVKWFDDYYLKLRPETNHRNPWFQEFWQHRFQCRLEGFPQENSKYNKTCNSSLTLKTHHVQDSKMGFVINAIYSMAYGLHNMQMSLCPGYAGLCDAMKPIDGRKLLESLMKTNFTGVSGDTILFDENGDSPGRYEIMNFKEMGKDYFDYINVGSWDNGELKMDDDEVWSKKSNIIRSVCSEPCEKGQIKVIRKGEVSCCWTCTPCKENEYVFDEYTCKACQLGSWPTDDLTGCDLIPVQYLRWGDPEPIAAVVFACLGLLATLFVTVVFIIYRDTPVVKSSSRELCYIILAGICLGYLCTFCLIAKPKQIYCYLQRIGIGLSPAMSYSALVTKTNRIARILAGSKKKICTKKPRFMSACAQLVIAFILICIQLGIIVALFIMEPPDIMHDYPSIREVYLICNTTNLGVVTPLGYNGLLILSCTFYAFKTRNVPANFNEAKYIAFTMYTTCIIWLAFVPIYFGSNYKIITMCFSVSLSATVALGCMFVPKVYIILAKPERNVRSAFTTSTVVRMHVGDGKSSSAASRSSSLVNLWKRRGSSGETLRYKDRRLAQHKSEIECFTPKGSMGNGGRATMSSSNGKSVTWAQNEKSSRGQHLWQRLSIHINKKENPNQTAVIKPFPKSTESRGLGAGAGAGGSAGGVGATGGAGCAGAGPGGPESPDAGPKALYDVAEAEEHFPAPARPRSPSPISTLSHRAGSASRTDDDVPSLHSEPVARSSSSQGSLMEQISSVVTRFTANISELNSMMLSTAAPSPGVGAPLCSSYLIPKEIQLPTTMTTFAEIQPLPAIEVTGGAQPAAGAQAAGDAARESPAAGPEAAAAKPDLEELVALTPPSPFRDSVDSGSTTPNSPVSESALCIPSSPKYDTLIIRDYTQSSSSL
Chain of Metabotropic glutamate receptor 2 (Q14416 whole entry): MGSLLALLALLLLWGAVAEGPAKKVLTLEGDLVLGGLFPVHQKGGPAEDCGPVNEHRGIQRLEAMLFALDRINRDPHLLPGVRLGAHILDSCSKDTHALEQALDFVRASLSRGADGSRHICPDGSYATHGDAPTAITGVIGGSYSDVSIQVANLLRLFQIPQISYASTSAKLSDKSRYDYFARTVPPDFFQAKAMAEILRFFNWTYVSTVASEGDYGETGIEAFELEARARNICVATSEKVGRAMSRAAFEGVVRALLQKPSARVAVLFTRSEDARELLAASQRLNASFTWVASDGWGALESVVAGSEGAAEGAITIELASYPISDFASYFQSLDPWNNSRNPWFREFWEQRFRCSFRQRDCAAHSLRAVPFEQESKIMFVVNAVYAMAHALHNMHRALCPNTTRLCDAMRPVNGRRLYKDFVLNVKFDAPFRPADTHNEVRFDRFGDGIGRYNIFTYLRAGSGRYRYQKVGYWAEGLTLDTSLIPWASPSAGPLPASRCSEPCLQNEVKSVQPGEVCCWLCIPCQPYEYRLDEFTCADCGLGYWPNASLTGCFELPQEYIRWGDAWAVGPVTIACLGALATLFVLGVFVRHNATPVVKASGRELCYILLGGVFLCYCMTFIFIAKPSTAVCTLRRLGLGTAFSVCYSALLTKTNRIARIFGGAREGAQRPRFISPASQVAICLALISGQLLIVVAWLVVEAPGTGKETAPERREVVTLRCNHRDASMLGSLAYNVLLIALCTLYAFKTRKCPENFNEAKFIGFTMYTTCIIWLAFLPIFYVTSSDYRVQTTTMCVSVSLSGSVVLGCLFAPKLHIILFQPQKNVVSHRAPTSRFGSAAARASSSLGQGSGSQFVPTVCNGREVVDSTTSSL

Structure (SMILES): N[C@H](C(=O)O)C12C3C4C1C1C2C3C41C(=O)O (stereo partly drawn)
- Ki [1]: > 1000 µM
- Ki [2]: > 1000 µM
- Ki [3]: 232 µM
- Ki [4]: 55 µM

Structure (SMILES): CN[C@H](CC(=O)O)C(=O)O [N-METHYL-D-ASPARTIC ACID (NMDA)]
- EC50 [5]: 36 µM
- EC50 [6]: 20 µM
- EC50 [7]: 9 µM
- EC50 [8]: 22 µM
